For the assay, the system named is Cat Papillary Muscles. Briefly: Positive Inotropic Activity in Isolated Cat Papillary Muscles. Type of assay: cell-based. The following applies: Felis catus, control = 100 percent, read-out: Contractility of Papillary Muscle (peak response); for activity at 100 µM: Drug Concentration 10^-4 M; for activity at 10 µM: Drug Concentration 10^-5 M. Here is the method:
Positive Inotropic Activity in Isolated Cat Papillary Muscles […] A platinum hook secured one end of the muscle to an electrode mounted in the bottom of the bath, and a silk thread attached the tendon to a Statham isometric transducer. The baths contained Krebs-Henseleit solution (36° C., bubbled with 95 percent oxygen--5 percent carbon dioxide) of the following millimolar composition: NaCl, 118; KCl, 4.5; CaCl2, 2.5; KH2 PO4, 1.1; MgSO4, 1.2; NaHCO3, 25; and glucose, 11. A base-line tension of 1.5 g. was applied to each muscle. Square-wave pulses (5.0 msec. in duration, three times threshold voltage) delivered through the hook electrode and a second electrode positioned near the top of the muscle evoked 12 contractions/minute, which were recorded on a Grass polygraph. After the muscles had equilibrated for 60 minutes, the recorder gain was adjusted so that the pen deflected 10 mm. The drug was introduced in a solution of normal saline in an amount to bring the final concentration of the drug to 10^-5 or 10^-4 molar. Increases in contractility were tabulated as millimeters of pen deflection in excess of the baseline value. In each experiment the maximum contractility was measured. Test results are summarized in Table I and are expressed as percent of control (control=100 percent). Values are the average of results from 2 to 8 muscles.

Where a name gives a salt, the structure may show the parent alone.

On to `Fc1cccc(-c2nc3cnccc3[nH]2)c1` [Example 1, 2-(3-Fluorophenyl)imidazo[4,5-c]pyridine hydrochloride], for which the activity at 100 µM worked out at 157% and the activity at 10 µM is 112%.

`Clc1cc(Cl)cc(-c2nc3cnccc3[nH]2)c1` [Example 3, 2-(3,5-Dichlorophenyl)imidazo[4,5-c]pyridine hydrochloride]: the activity at 100 µM was 146% and the activity at 10 µM turned out to be 117%.

On to `Fc1ccc(-c2nc3cnccc3[nH]2)cc1` [Example 5, 2-(4-Fluorophenyl)imidazo[4,5-c]pyridine hydrochloride], for which the activity at 100 µM came out at 163% and the activity at 10 µM was 105%.

Regarding `Fc1ccccc1-c1nc2cnccc2[nH]1` [Example 6, 2-(2-Fluorophenyl)imidazo[4,5-c]pyridine hydrochloride], the activity at 100 µM worked out at 152% and the activity at 10 µM was found to be 108%.

As to `COc1cc(-c2nc3cnccc3[nH]2)cc(OC)c1OC` [Example 10, 2-(3,4,5-trimethoxyphenyl)imidazo[4,5-c]pyridine hydrochloride], the activity at 100 µM was 150% and the activity at 10 µM stood at 109%.

Regarding `COc1cccc(-c2nc3cnccc3[nH]2)c1OC` [Example 11, 2-(2,3-dimethoxyphenyl)imidazo[4,5-c]pyridine hydrochloride], the activity at 100 µM turned out to be 90% and the activity at 10 µM was found to be 102%.

As to `O=[N+]([O-])c1cccc(-c2nc3cnccc3[nH]2)c1` [Example 12, 2-(3-nitrophenyl)imidazo[4,5-c]pyridine hydrochloride], the activity at 100 µM is 105% and the activity at 10 µM amounted to 102%.

In the case of `N#Cc1ccc(-c2nc3cnccc3[nH]2)cc1` [Example 14, 2-(4-cyanophenyl)imidazo[4,5-c]pyridine hydrochloride], the activity at 100 µM came out at 164% and the activity at 10 µM stood at 112%.

As to `COc1cccc(-c2nc3cnccc3[nH]2)c1` [Example 16, 2-(3-methoxyphenyl)imidazo[4,5-c]pyridine hydrochloride], the activity at 100 µM worked out at 213% and the activity at 10 µM was 114%.

In the case of `CN(C)c1ccc(-c2nc3cnccc3[nH]2)cc1` [Example 17, 2-(4-dimethylaminophenyl)imidazo[4,5-c]pyridine hydrochloride], the activity at 100 µM was 175% and the activity at 10 µM came out at 95%.

Take `COc1ccccc1-c1nc2cnccc2[nH]1` [Example 18, 2-(2-methoxyphenyl)imidazo[4,5-c]pyridine hydrochloride]: the activity at 100 µM came out at 163% and the activity at 10 µM was found to be 115%.

For the compound `CCCCOc1ccc(-c2nc3cnccc3[nH]2)cc1` [Example 19, 2-(4-n-butoxyphenyl)imidazo[4,5-c]pyridine hydrochloride], the activity at 100 µM is 288% and the activity at 10 µM came out at 114%.

Turning to `COc1cc(Cl)ccc1-c1nc2cnccc2[nH]1` [Example 20, 2-(4-chloro-2-methoxyphenyl)imidazo[4,5-c]pyridine hydrochloride], the activity at 100 µM was 146% and the activity at 10 µM was determined as 147%.

`COc1c(C)cc(-c2nc3cnccc3[nH]2)cc1C` [Example 21, 2-(3,5-dimethyl-4-methoxyphenyl)imidazo[4,5-c]pyridine hydrochloride]: the activity at 100 µM was 215% and the activity at 10 µM amounted to 127%.

Take `COc1ccc(-c2nc3cnccc3[nH]2)c(OC)c1OC` [Example 22, 2-(2,3,4-trimethoxyphenyl)imidazo[4,5-c]pyridine hydrochloride]: the activity at 100 µM worked out at 221% and the activity at 10 µM amounted to 117%.

Turning to `Cc1ccc(-c2nc3cnccc3[nH]2)cc1` [Example 25, 2-(4-methylphenyl)imidazo[4,5-c]pyridine hydrochloride], the activity at 100 µM stood at 130% and the activity at 10 µM amounted to 95%.

In the case of `CCOc1cc(OC)ccc1-c1nc2cnccc2[nH]1` [Example 28, 2-(2-ethoxy-4-methoxyphenyl)imidazo[4,5-c]pyridine], the activity at 100 µM is 130% and the activity at 10 µM worked out at 108%.

With `CCCCOc1cc(OC)ccc1-c1nc2cnccc2[nH]1` [Example 30, 2-(2-n-butoxy-4-methoxyphenyl)imidazo[4,5-c]pyridine], the activity at 100 µM stood at 140% and the activity at 10 µM was 100%.

As to `COc1ccc(OC)c(-c2nc3cnccc3[nH]2)c1` [Example 31, 2-(2,5-dimethoxyphenyl)imidazo[4,5-c]pyridine hydrochloride], the activity at 100 µM was 194% and the activity at 10 µM was determined as 110%.

In the case of `COc1cc(OC)cc(-c2nc3cnccc3[nH]2)c1` [Example 32, 2-(3,5-dimethoxyphenyl)imidazo[4,5-c]pyridine], the activity at 100 µM came out at 179% and the activity at 10 µM turned out to be 115%.

Take `COc1cccc(OC)c1-c1nc2cnccc2[nH]1` [Example 33, 2-(2,6-dimethoxyphenyl)imidazo[4,5-c]pyridine hydrochloride]: the activity at 100 µM is 184% and the activity at 10 µM turned out to be 88%.

In the case of `COc1cc(OC)c(-c2nc3cnccc3[nH]2)c(OC)c1` [Example 34, 2-(2,4,6-trimethoxyphenyl)imidazo[4,5-c]pyridine], the activity at 100 µM was 137% and the activity at 10 µM was 103%.

For the compound `CCCCCOc1cc(OC)ccc1-c1nc2cnccc2[nH]1` [Example 35, 2-(2-n-pentoxy-4-methoxyphenyl)imidazo[4,5-c]pyridine hydrochloride], the activity at 100 µM was determined as 81% and the activity at 10 µM turned out to be 105%.

With `COCCCOc1cc(OC)ccc1-c1nc2cnccc2[nH]1` [Example 36, 2-[2-(γ-methoxypropoxy)-4-methoxyphenyl]imidazo[4,5-c]pyridine], the activity at 100 µM turned out to be 147% and the activity at 10 µM was 100%.

Take `COCCOc1cc(OC)ccc1-c1nc2cnccc2[nH]1` [Example 37, 2-[2-(β-methoxyethoxy)-4-methoxyphenyl]imidazo[4,5-c]pyridine]: the activity at 100 µM is 116% and the activity at 10 µM turned out to be 109%.

`COc1ccc(-c2nc3cnccc3[nH]2)c(OCCSc2ccccc2)c1` [Example 38, 2-[2-(β-phenylmercaptoethoxy)-4-methoxyphenyl]imidazo[4,5-c]pyridine]: the activity at 100 µM amounted to 109% and the activity at 10 µM came out at 103%.

Take `COc1cc(OC)c(-c2nc3cnccc3[nH]2)cc1OC` [Example 40, 2-(2,4,5-trimethoxyphenyl)imidazo[4,5-c]pyridine hydrochloride]: the activity at 100 µM is 129% and the activity at 10 µM was 108%.

On to `CCSc1ccc(-c2nc3cnccc3[nH]2)c(OC)c1` [Example 41, 2-(2-methoxy-4-ethylmercaptophenyl)imidazo[4,5-c]pyridine hydrochloride], for which the activity at 100 µM is 196% and the activity at 10 µM came to 136%.

On to `CCOc1cc(SC)ccc1-c1nc2cnccc2[nH]1` [Example 42, 2-(2-ethoxy-4-methylmercaptophenyl)imidazo[4,5-c]pyridine], for which the activity at 100 µM turned out to be 149% and the activity at 10 µM amounted to 122%.

Turning to `COc1ccc(-c2nc3cnccc3[nH]2)c(OCCCSC)c1` [Example 44, 2-[2-(γ-methylmercaptopropoxy)-4-methoxyphenyl]imidazo[4,5-c]pyridine], the activity at 100 µM came to 129% and the activity at 10 µM amounted to 118%.

For the compound `Cc1ccc(-c2nc3cnccc3[nH]2)cc1C` [Example 46, 2-(3,4-dimethylphenyl)imidazo[4,5-c]pyridine hydrochloride], the activity at 100 µM amounted to 225% and the activity at 10 µM stood at 133%.

Take `Clc1cccc(-c2nc3cnccc3[nH]2)c1` [Example 48, 2-(3-chlorophenyl)imidazo[4,5-c]pyridine]: the activity at 100 µM amounted to 176% and the activity at 10 µM was found to be 107%.

Turning to `Clc1ccc(-c2nc3cnccc3[nH]2)cc1` [Example 49, 2-(4-chlorophenyl)imidazo[4,5-c]pyridine], the activity at 100 µM was 175% and the activity at 10 µM is 107%.

In the case of `COc1ccc(-c2nc3cnccc3[nH]2)c(OCC[S+]([O-])c2ccccc2)c1` (stereo not drawn) [Example 53, 2-[2-(β-phenylsulfinylethoxy)-4-methoxyphenyl]imidazo[4,5-c]pyridine], the activity at 100 µM was found to be 96% and the activity at 10 µM was 107%.

Turning to `COc1cc(Br)ccc1-c1nc2cnccc2[nH]1` [Example 57, 2-(2-methoxy-4-bromophenyl)imidazo[4,5-c]pyridine hydrochloride], the activity at 100 µM was found to be 175% and the activity at 10 µM amounted to 134%.

The values are drawn from patent US4758574A, “2-phenylimidazio (4,5-c) pyridines” (Eli Lilly and Company, priority 1986, dated 1988).
